Experimental data: patent US20090238768A1, “MULTIMERIC MAGNETIC RESONANCE CONTRAST AGENTS” (priority 2005, published 2009)
Like-named read-outs stand apart in the source and are kept apart here.

Tests used:
[1] = longitudinal relaxivity rl in human blood plasma at 37° C.; assay type: physicochemical; conditions: for longitudinal relaxivity rl calculated for a field of 3 T: calculated from the measurements at lower fields
Experimental: Compound 23 was dissolved in human blood plasma and the longitudinal relaxivity rl was measured at 37° C. at the following fields:
Compound 13 was dissolved in human blood plasma and the longitudinal relaxivity rl was measured at 37° C. at the following fields:
Compound 36 was dissolved in human blood plasma and the longitudinal relaxivity rl was measured at 37° C. at the following fields:
Compound 40 was dissolved in human blood plasma and the longitudinal relaxivity rl was measured at 37° C. at the following fields:
Compound 43 was dissolved in human blood plasma and the longitudinal relaxivity rl was measured at 37° C. at the following fields:
Compound 46 was dissolved in human blood plasma and the longitudinal relaxivity rl was measured at 37° C. at the following fields: […]

[2] = 3 T, human blood plasma, 37° C., published data; cited from earlier work

| Compound | longitudinal relaxivity rl ([1]; 0.235 T) [mM^1s^1] | longitudinal relaxivity rl ([1]; 0.47 T) [mM^1s^1] | longitudinal relaxivity rl ([1]; 1.41 T) [mM^1s^1] | longitudinal relaxivity rl calculated for a field of 3 T ([1]; 3 T) [mM^1s^1] | also measured |
| --- | --- | --- | --- | --- | --- |
| gadolinium derivative of 2,4,6-trimethylbenzene-1,3,5-tris-[N-methyl-((2-DO3A-propyl)-3-(N′-methyl-amidophenyl))-carboxamide)] [Compound 43] | 12 | 10.6 | 9 | 8.2 |  |
| gadolinium derivative of 1,3,5-tris-(N-(DO3A-acetamido)-N-methyl-4-amino-2-methyl-phenyl)-[1,3,5]triazinane-2,4,6-trione [Compound 23] |  |  |  |  | longitudinal relaxivity rl ([1]; 0.25 T): 10.7 mM⁻¹ s⁻¹; longitudinal relaxivity rl ([1]; 1.5 T): 11.6 mM^1s^1; longitudinal relaxivity rl ([1]; 2.35 T): 10.1 mM^1s^1; longitudinal relaxivity rl ([1]; 3 T): 9.9 mM^1s^1 |
| Cc1c(C(=O)N(C)c2cccc(NC(=O)CN3CCN4CCN5CCN(CC3)CC(=O)[O][Gd]([O]C(=O)C4)[O]C(=O)C5)c2)c(C)c(C(=O)N(C)c2cccc(NC(=O)CN3CCN4CCN5CCN(CC3)CC(=O)[O][Gd]([O]C(=O)C4)[O]C(=O)C5)c2)c(C)c1C(=O)N(C)c1cccc(NC(=O)CN2CCN3CCN4CCN(CC2)CC(=O)[O][Gd]([O]C(=O)C3)[O]C(=O)C4)c1 [Compound 36, gadolinium derivative of 2,4,6-trimethylbenzene-1,3,5-tris-[(DO3A-(3-acetamidophenyl))-N-methyl-carboxamide]] | 9.3 | 8.8 | 7.3 | 8.5 |  |
| CNC[C@H](O)[C@@H](O)[C@H](O)[C@H](O)CO.CNC[C@H](O)[C@@H](O)[C@H](O)[C@H](O)CO.O=C([O-])CN(CCN(CC(=O)[O-])CC(=O)O)CCN(CC(=O)O)C(COCc1ccccc1)C(=O)[O-].[Gd+3] (stereo not shown) [Multihance] |  |  |  |  | longitudinal relaxivity rl [2]: 6.3 mM^1s^1 |
| gadolinium derivative of benzene-1,3,5-tris-[((DO3A-acetamido)-3-(N′-methylamido-phenyl))-carboxamide)] [Compound 13] |  |  |  | 9.0 | longitudinal relaxivity rl ([1]; 1.5 T): 9.2 mM^1s^1; longitudinal relaxivity rl ([1]; 2.35 T): 9.5 mM^1s^1 |
| Cc1c(C(=O)N(C)c2cccc(N(C)C(=O)C(C)N3CCN4CCN5CCN(CC3)CC(=O)[O][Gd]([O]C(=O)C5)[O]C(=O)C4)c2)c(C)c(C(=O)N(C)c2cccc(N(C)C(=O)C(C)N3CCN4CCN5CCN(CC3)CC(=O)[O][Gd]([O]C(=O)C5)[O]C(=O)C4)c2)c(C)c1C(=O)N(C)c1cccc(N(C)C(=O)C(C)N2CCN3CCN4CCN(CC2)CC(=O)[O][Gd]([O]C(=O)C4)[O]C(=O)C3)c1 (stereo not shown) [Compound 46] | 10.9 | 10.1 | 8.9 | 9 |  |
| CNC[C@H](O)[C@@H](O)[C@H](O)[C@H](O)CO.CNC[C@H](O)[C@@H](O)[C@H](O)[C@H](O)CO.O=C([O-])CN(CCN(CC(=O)[O-])CC(=O)O)CCN(CC(=O)[O-])CC(=O)O.[Gd+3] [Magnevist] |  |  |  |  | longitudinal relaxivity rl [2]: 3.3 mM^1s^1 |
| Cc1c(C(=O)N(C)c2cccc(NC(=O)C(C)N3CCN4CCN5CCN(CC3)CC(=O)[O][Gd]([O]C(=O)C5)[O]C(=O)C4)c2)c(C)c(C(=O)N(C)c2cccc(NC(=O)C(C)N3CCN4CCN5CCN(CC3)CC(=O)[O][Gd]([O]C(=O)C5)[O]C(=O)C4)c2)c(C)c1C(=O)N(C)c1cccc(NC(=O)C(C)N2CCN3CCN4CCN(CC2)CC(=O)[O][Gd]([O]C(=O)C4)[O]C(=O)C3)c1 (stereo not shown) [Compound 40] | 10.1 | 8.6 | 9.1 | 9 |  |
